The subject of series [1] is bronchoconstriction caused by histamine. The experiment in a line: Bronchoconstriction caused by histamine in guinea pigs (sGaw, whole body plethysmography). Format: in vivo. The protocol:
Male guinea pigs weighing between 250 and 300 g for several days before the beginning of the experiment have been accustomed to the restrained and whole-body plethysmograph. Histamine (3 mM dissolved in saline solution 0.9%) has been administered by intranasal route for 20 seconds 24 hours before and 15 minutes after the administration of the tested compounds. NO-Budesonide (635: g/ml) and Budesonide (448: g/ml) dissolved in a mixture (v/v) DMSO 20%, ethanol 10%, saline physiological solution 70%, or the carrier, have been administered to the animals as aerosols, in a sealed room, using a wright nebulizer operating by compressed air at a pressure of 21.38×10^3 Pa (20 p.s.i.) and a flow of 0.5 ml/min. The administration lasted 15 minutes.
To monitor the functionality of the animal airways the “whole body” plethysmography has been used. The animals were watchful and functionality has been determined as specific conductance of the airways (sGaw), expressed in % change of the basal value in the instant immediately after the exposure. To this purpose the animals were provided with a suitable mask and then transferred in a sealed room. The respiratory flow has been determined by a pneumotachograph and a pressure transducer.

The target of a further series is T1, glucocorticoid receptor (Homo sapiens, UniProt P04150).
T1 construct: The monocytes have been isolated from human blood by a method based on a density gradient; endogenous in cells; host or cells: primary human blood monocytes (Ficoll-Hypaque isolated), intact cells
T1 sequence (P04150 1-777): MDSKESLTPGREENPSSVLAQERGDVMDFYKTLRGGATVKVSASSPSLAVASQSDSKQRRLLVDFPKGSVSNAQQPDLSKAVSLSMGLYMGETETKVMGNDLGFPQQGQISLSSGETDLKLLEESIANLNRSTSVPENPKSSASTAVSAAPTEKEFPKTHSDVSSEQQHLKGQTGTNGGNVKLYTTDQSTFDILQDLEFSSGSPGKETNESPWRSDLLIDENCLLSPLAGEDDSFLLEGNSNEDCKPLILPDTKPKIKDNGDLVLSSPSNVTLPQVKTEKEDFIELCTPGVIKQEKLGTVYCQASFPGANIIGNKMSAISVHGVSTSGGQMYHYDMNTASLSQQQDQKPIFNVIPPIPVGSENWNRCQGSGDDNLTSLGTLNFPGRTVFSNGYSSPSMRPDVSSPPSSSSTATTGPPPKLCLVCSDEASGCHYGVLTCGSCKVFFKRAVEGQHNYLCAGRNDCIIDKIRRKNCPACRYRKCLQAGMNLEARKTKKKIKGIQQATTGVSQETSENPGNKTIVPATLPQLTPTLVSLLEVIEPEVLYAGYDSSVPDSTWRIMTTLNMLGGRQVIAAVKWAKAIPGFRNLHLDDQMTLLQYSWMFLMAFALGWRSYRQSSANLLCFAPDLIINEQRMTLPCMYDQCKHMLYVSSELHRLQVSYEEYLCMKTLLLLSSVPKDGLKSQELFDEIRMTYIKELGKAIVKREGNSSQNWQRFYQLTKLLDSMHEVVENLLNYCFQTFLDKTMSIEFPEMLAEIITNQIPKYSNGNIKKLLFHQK
In words: GR binding assay: displacement of 3H-dexamethasone from glucocorticoid binding sites in human monocytes. The following applies: 3H-dexamethasone 50 nM, 37° C., 1 hour. The protocol:
In these experiments human monocytes having on their surface receptors for glucocorticoids have been used.
In this experiment the capability of the tested substances to displace ^3H-dexamethasone from the bond sites for the glucorticoids present in human monocytes has been evaluated.
The test tube content has been mixed using a Vortex equipment. The test tubes have then been incubated at 37° C. for 1 hour.
After incubation, the cells have been washed 4 times with a saline solution in phosphate buffer cooled in ice bath (PBS, 0.01 M) and the amount of [^3H]-dexamethasone bound to the cells has been determined by liquid scintigraphy. For each sample the concentration of [^3H]-dexamethasone bound to the cells (femtomoles (fmoles)/ml 10^−15 moles/ml) has been calculated by substracting from the measured values the non specific bond value, and then multiplying by the ratio molarity/radioactivity.
The data reported in the Tables are expressed in fmole [^3H]-dexamethasone/ml.
(In a radioligand displacement assay an active substance lowers the binding of a labelled ligand.)

Series [2] concerns gastric damage caused by ischaemia-reperfusion. The experiment in a line: Gastric damage caused by ischaemia-reperfusion in rats. As to conditions: 28 :moles/kg by os 2 hours before the ischaemia; control 3 ± 1.
The test system of series [3] is arthritis caused by collagen. In words: Anti-arthritic activity in collagen-induced arthritis in rats. It is filed as in vivo, Lewis rats. The following applies: 4 :moles/kg i.p.; for Hind Legs Articulations Sizes: day 12 to 18, measured on day 18, control 7.03, naive 5.9; for histological analysis of the articulations: day 18; for Leg Average Volume: plethysmometer, control 1.5, naive 1.1; for Hip Functionality Evaluation (Score): score 0 (absence of inflammation) to 3 (serious inflammation), control 1.6; for Hind Legs Articulations Reduction %: with respect to the control group treated only with collagen suspension. The protocol: Lewis female rats weighing 150-200 g fed by a standard diet and with free access to water have been stabulated with cycles of 12 hours light/dark.
To carry out the experiment, the rats were anaesthetized with halothane (day zero), then at the base of the tail, by intradermal injection, a collagen suspension II/Freund's incomplete adjuvant (400: g/rat) was injected, prepared as described hereinafter: nasal bovine collagen of type II (Sigma-Aldrich, 4 mg/ml) has been dissolved in acetic acid (0.01 M) and emulsified with a same volume of cold Freund's incomplete adjuvant (Sigma-Aldrich).
The arthritic pathology became evident between the 11th and the 13th day, with a maximum inflammation at the 18th day in untreated rats.
From the 12th to the 18th day subsequent to the injection, the rats, divided in 3 groups of 10 animals each, have been treated i.p. according to the following protocol:
A fourth group of healthy rats (naive) has been taken as a further reference.
During the treatment with the tested compounds the antiarthritic activity has been evaluated by the following parameters: • average paw volume determined by a plethysmometer; • clinical evaluation of the hip functionality by an arbitrary score from 0 (absence of inflammation) to 3 (serious inflammation, which affects both the hip articulation and the animal paw).
On the 18th day the rats were sacrificed and the diameters of the femoral articulations of the animal hind legs were determined after skin removal; and an histological analysis of the articulations was carried out.
In table 5 there are reported: • the articulation sizes expressed in mm, • the percent reduction of the articulation size calculated with respect to the control rat group treated only with the collagen suspension, • the paw average volume, expressed in ml, daily determined, • the score evaluation of the hip functionality.

In series [4] the test system is primary rat osteoclastes. The experiment in a line: Osteoclastic activity in vitro (reabsorption areas on calcium phosphate plaques). The following applies: 1 nM, 18 hours at 37° C.; control 100.
Series [5] concerns primary rat osteoclastes. The following applies: 18 h, 1 nM.
Series [6] relates to spinal lesions from trauma. The experiment in a line: Recovery of motor functions after spinal lesions from trauma in rats (BBB score). As to conditions: 20 mg/kg s.c. once a day for 5 days.
The format of series [7] is in vivo, Sprague Dawley rats. As to conditions: 5 mg/Kg/die i.p. for 3 weeks. The protocol:
[…]. The controls have been treated with the carrier (peanut oil 0.5 ml/rat/die i.p. for 3). At the end of the treatment the average arterial pressure (MABP) and the heart-beat have been controlled in the rats. […]. treated group 348±18, n=9).

[8] abbreviates: t0 = 24 hours before the inhalation of the tested compound.
Setting [9] is: t1 = 15 minutes after the inhalation of the tested compound, aerosol for 15 minutes, equimolar doses (635 / 448 :g/ml).

Like-named read-outs stand apart in the source and are kept apart here.

As for `CCCC1O[C@@H]2C[C@H]3[C@@H]4CCC5=CC(=O)C=C[C@]5(C)[C@H]4[C@@H](O)C[C@]3(C)[C@]2(C(=O)CO)O1` (stereo partly drawn) [Budesonide, reference compound], the “specific conductance of the airways (sGaw), % change of the basal value after histamine” value is given as −28.7 ± 8.8% in series [1] (setting [8]) and −42.6 ± 15.9% in series [1] (setting [9]).
For the compound `C[C@]12C=CC(=O)C=C1CC[C@@H]1[C@@H]2[C@@H](O)C[C@@]2(C)[C@H]1CC[C@]2(O)C(=O)COC(=O)CCCO[N+](=O)[O-]` [Predn-C4—ONO2, Prednisolone 21-(4-nitrooxy)butyrate, reference compound], on glucocorticoid receptor (tested compound 1 μM), the “Bound 3H Dexamethasone” value is 9.9 fmol/mL.
On the same count and under the same terms, for `C[C@]12C=CC(=O)C=C1CC[C@@H]1[C@@H]2[C@@H](O)C[C@@]2(C)[C@H]1CC[C@]2(O)C(=O)COC(=O)CN1CCN(CCCO[N+](=O)[O-])CC1.O=C(O)C(F)(F)F.O=C(O)C(F)(F)F` [Predn-pyper-C3—ONO2, Prednisolone-21-[2-[4-(3-nitrooxypropyl)piperazin-1-yl]acetate]bis-trifluoromethanacetate] the value was 2.4 fmol/mL.
With `C[C@]12C=CC(=O)C=C1CC[C@@H]1[C@@H]2[C@@H](O)C[C@@]2(C)[C@H]1CC[C@]2(O)C(=O)CO` [Prednisolone, reference compound], in series [2], the “Lesion Index (LI)” value was 44 ± 2.5. Also, in series [3], the “Hind Legs Articulations Sizes” value is reported as 6.1 mm; the “histological analysis of the articulations” value was “cartilage ulcerations and synovial inflammation were present”; the “Leg Average Volume” value is 1.26 mL; the “Hip Functionality Evaluation (Score)” value was found to be 0.6 Score. Further, in series [3], the “Hind Legs Articulations Reduction %” value turned out to be 12.7%. Further, the “% Reabsorbed Area with Respect to Control Area” value in the series with primary rat osteoclastes [4] is listed as 148%.
Regarding `C[C@@H]1CC2C3CCC4=CC(=O)C=C[C@]4(C)[C@@]3(F)[C@@H](O)C[C@]2(C)[C@@]1(O)C(=O)COC(=O)c1ccc(CO[N+](=O)[O-])cc1` (stereo partly drawn) [Dex-Ar—ONO2, Dexamethasone 21-(4′-nitrooxymethyl)benzoate], the “Bound 3H Dexamethasone” value on glucocorticoid receptor (tested compound 0.1 μM) was found to be 1.1 fmol/mL.
Take `C[C@]12CCC(=O)C=C1CCC1C2[C@@H](O)C[C@@]2(C)C1CC[C@]2(O)C(=O)COC(=O)c1ccc(CO[N+](=O)[O-])cc1` (stereo partly drawn) [Hydr-Ar—ONO2, Hydrocortisone 21-(4′-nitrooxymethyl)benzoate]: the “Bound 3H Dexamethasone” value at glucocorticoid receptor (tested compound 0.3 :M) came out at 17.3 fmol/mL; at glucocorticoid receptor (tested compound 10 :M), 0 fmol/mL.
On to `CCCC1O[C@@H]2CC3C4CCC5=CC(=O)C=C[C@]5(C)C4[C@@H](O)C[C@]3(C)[C@]2(C(=O)COC(=O)c2ccc(CO[N+](=O)[O-])cc2)O1` (stereo partly drawn) [Budesonide-NO, Budesonide 21-(4′-nitrooxymethyl)benzoate], for which, in series [1] (aerosol, equimolar doses), the “inhibition of the bronchoconstriction caused by histamine” value stood at 100%. Moreover, the “specific conductance of the airways (sGaw), % change of the basal value after histamine” value in series [1] (setting [8]) was −29.7 ± 9.8%; in series [1] (setting [9]), “+1.4 ± 7.9%”.
`C[C@]12C=CC(=O)C=C1CCC1C2[C@@H](O)C[C@@]2(C)C1CC[C@]2(O)C(=O)COC(=O)c1ccc(CO[N+](=O)[O-])cc1` (stereo partly drawn) [Predn-Ar—ONO2, Prednisolone 21-(4′-nitrooxymethyl)benzoate]: the “Lesion Index (LI)” value in series [2] was determined as 7 ± 2.1. The “Bound 3H Dexamethasone” value on glucocorticoid receptor (tested compound 1 μM) amounted to 0 fmol/mL. In the series with primary rat osteoclastes [5], the “% Reabsorbed Area with Respect to Control Area” value came out at 90%. Moreover, in series [3], the “Hind Legs Articulations Sizes” value is 5.7 mm; the “histological analysis of the articulations” value is “both the synovial inflammation and the infiltration of inflammatory cells in cartilages were minimal, without compromising the cartilages”; the “Leg Average Volume” value came out at 1.1 mL; the “Hip Functionality Evaluation (Score)” value was determined as 0.1 Score. The “Hind Legs Articulations Reduction %” value in series [3] turned out to be 18.6%. For the same compound, the “Motor Behaviour Evaluation (BBB score)” value in series [6] (3rd day after trauma, 0 = does not walk, 20 = normal, control 4) stood at 8. Besides, the “Motor Behaviour Evaluation (BBB score)” value in series [6] (5th day after trauma, control 6) was found to be 14. The “Motor Behaviour Evaluation (BBB score)” value in series [6] (7th day after trauma, control 8) is 17. In series [7] (control 330±32), the heart-beat worked out at 348±18. Also, in series [7] (controls 110±4), the “average arterial pressure (MABP)” value worked out at 128±7.
`C[C@]12C=CC(=O)C=C1CC[C@@H]1[C@@H]2[C@@H](O)C[C@@]2(C)[C@H]1CC[C@]2(O)C(=O)COC(=O)CN1CCN(CCCO[N+](=O)[O-])CC1.Cl.Cl` [Predn-pyper-ONO2, Prednisolone-21-[2-[4-(3-nitrooxypropyl)piperazin-1-yl]acetate]bishydrochloride]: the “Bound 3H Dexamethasone” value at glucocorticoid receptor (tested compound 1 μM) worked out at 5.5 fmol/mL.
As for `C[C@]12CCC(=O)C=C1CC[C@@H]1[C@@H]2[C@@H](O)C[C@@]2(C)[C@H]1CC[C@]2(O)C(=O)COC(=O)CCCO[N+](=O)[O-]` [Hydr-C4—ONO2, Hydrocortisone-21-(4-nitrooxybutyrate), reference compound], the “Bound 3H Dexamethasone” value was 25.6 fmol/mL at glucocorticoid receptor (tested compound 0.3 :M) and 4.3 fmol/mL on glucocorticoid receptor (tested compound 10 :M).
